# According to ChEMBL document CHEMBL3045835, “Comparative study of conventional and microwave-assisted synthesis of some Schiff bases and their potential as antimicrobial agents” (2012):
# How the values were obtained:
# Type in all cases: functional
# [1] = tested on: Bacillus pumilus; assay: Antibacterial activity against Bacillus pumilus MTCC 1456 at 200 ug/ml after 18 hr by cup-plate method; settings: MTCC 1456, 18 h, read-out: DIZ
# [2] = tested on: Bacillus subtilis; assay: Antibacterial activity against Bacillus subtilis MTCC 441 at 100 ug/ml after 18 hr by cup plate method; settings: MTCC 441, 18 h, read-out: DIZ
# [3] = tested on: Escherichia coli; assay: Antibacterial activity against Escherichia coli MTCC 1573 at 100 ug/ml after 18 hr by cup-plate method; settings: MTCC 1573, 18 h, read-out: DIZ
# [4] = tested on: Pseudomonas aeruginosa; assay: Antibacterial activity against Pseudomonas aeruginosa MTCC 424 at 200 ug/ml after 18 hr by cup-plate method; settings: MTCC 424, 18 h, read-out: DIZ
# [5] = tested on: Bacillus pumilus; assay: Antibacterial activity against Bacillus pumilus MTCC 1456 at 1500 ug/ml after 18 hr by cup-plate method; settings: MTCC 1456, 18 h, read-out: DIZ
# [6] = tested on: Staphylococcus aureus; assay: Antibacterial activity against Staphylococcus aureus MTCC 1430 at 500 ug/ml after 18 hr by cup-plate method; settings: MTCC 1430, 18 h, read-out: DIZ
# [7] = tested on: Staphylococcus aureus; assay: Antibacterial activity against Staphylococcus aureus MTCC 1430 at 1500 ug/ml after 18 hr by cup-plate method; settings: MTCC 1430, 18 h, read-out: DIZ
# [8] = tested on: Bacillus subtilis; assay: Antibacterial activity against Bacillus subtilis MTCC 441 after 24 hr by broth dilution method; settings: MTCC 441, 24 h
# [9] = tested on: Pseudomonas fluorescens; assay: Antibacterial activity against Pseudomonas fluorescens MTCC 2421 at 1500 ug/ml after 18 hr by cup-plate method; settings: MTCC 2421, 18 h, read-out: DIZ
# [10] = tested on: Aspergillus niger; assay: Antifungal activity against Aspergillus niger MTCC 2546 after 24 hr by broth dilution method; settings: MTCC 2546, 24 h
# [11] = tested on: Penicillium chrysogenum; assay: Antifungal activity against Penicillium chrysogenum MTCC 161 at 500 ug/ml after 18 hr by cup-plate method; settings: MTCC 161, 18 h, read-out: DIZ
# [12] = tested on: Bacillus subtilis; assay: Antibacterial activity against Bacillus subtilis MTCC 441 at 1000 ug/ml after 18 hr by cup plate method; settings: MTCC 441, 18 h, read-out: DIZ
# [13] = tested on: Pseudomonas aeruginosa; assay: Antibacterial activity against Pseudomonas aeruginosa MTCC 424 after 24 hr by broth dilution method; settings: MTCC 424, 24 h
# [14] = tested on: Aspergillus niger; assay: Antifungal activity against Aspergillus niger MTCC 2546 at 100 ug/ml after 18 hr by cup-plate method; settings: MTCC 2546, 18 h, read-out: DIZ
# [15] = tested on: Bacillus subtilis; assay: Antibacterial activity against Bacillus subtilis MTCC 441 at 200 ug/ml after 18 hr by cup plate method; settings: MTCC 441, 18 h, read-out: DIZ
# [16] = tested on: Staphylococcus aureus; assay: Antibacterial activity against Staphylococcus aureus MTCC 1430 at 1000 ug/ml after 18 hr by cup-plate method; settings: MTCC 1430, 18 h, read-out: DIZ
# [17] = tested on: Penicillium chrysogenum; assay: Antifungal activity against Penicillium chrysogenum MTCC 161 at 1000 ug/ml after 18 hr by cup-plate method; settings: MTCC 161, 18 h, read-out: DIZ
# [18] = tested on: Pseudomonas fluorescens; assay: Antibacterial activity against Pseudomonas fluorescens MTCC 2421 at 500 ug/ml after 18 hr by cup-plate method; settings: MTCC 2421, 18 h, read-out: DIZ
# [19] = tested on: Penicillium chrysogenum; assay: Antifungal activity against Penicillium chrysogenum MTCC 161 after 24 hr by broth dilution method; settings: MTCC 161, 24 h
# [20] = tested on: Aspergillus niger; assay: Antifungal activity against Aspergillus niger MTCC 2546 at 1000 ug/ml after 18 hr by cup-plate method; settings: MTCC 2546, 18 h, read-out: DIZ
# [21] = tested on: Pseudomonas fluorescens; assay: Antibacterial activity against Pseudomonas fluorescens MTCC 2421 at 1000 ug/ml after 18 hr by cup-plate method; settings: MTCC 2421, 18 h, read-out: DIZ
# [22] = tested on: Bacillus pumilus; assay: Antibacterial activity against Bacillus pumilus MTCC 1456 at 1000 ug/ml after 18 hr by cup-plate method; settings: MTCC 1456, 18 h, read-out: DIZ
# [23] = tested on: Pseudomonas aeruginosa; assay: Antibacterial activity against Pseudomonas aeruginosa MTCC 424 at 500 ug/ml after 18 hr by cup-plate method; settings: MTCC 424, 18 h, read-out: DIZ
# [24] = tested on: Pseudomonas fluorescens; assay: Antibacterial activity against Pseudomonas fluorescens MTCC 2421 after 24 hr by broth dilution method; settings: MTCC 2421, 24 h
# [25] = tested on: Aspergillus niger; assay: Antifungal activity against Aspergillus niger MTCC 2546 at 1500 ug/ml after 18 hr by cup-plate method; settings: MTCC 2546, 18 h, read-out: DIZ
# [26] = tested on: Escherichia coli; assay: Antibacterial activity against Escherichia coli MTCC 1573 at 200 ug/ml after 18 hr by cup-plate method; settings: MTCC 1573, 18 h, read-out: DIZ
# [27] = tested on: Micrococcus luteus; assay: Antibacterial activity against Micrococcus luteus MTCC 1538 at 100 ug/ml after 18 hr by cup-plate method; settings: MTCC 1538, 18 h, read-out: DIZ
compound,measurement,setting,value
C(=N/c1nc[nH]n1)/c1cccc2ccccc12,zone of inhibition at 200 µg/mL,[1],16 mm
same,zone of inhibition at 100 µg/mL,[2],15 mm
same,zone of inhibition at 100 µg/mL,[3],17 mm
same,zone of inhibition at 200 µg/mL,[4],18 mm
same,zone of inhibition at 1500 µg/mL,[5],20 mm
same,zone of inhibition at 500 µg/mL,[6],14 mm
same,zone of inhibition at 1500 µg/mL,[7],18 mm
same,MIC,[8],300 µg/mL
same,zone of inhibition at 1500 µg/mL,[9],23 mm
same,MIC,[10],50 µg/mL
same,zone of inhibition at 500 µg/mL,[11],20 mm
same,zone of inhibition at 1000 µg/mL,[12],19 mm
same,MIC,[13],200 µg/mL
same,zone of inhibition at 100 µg/mL,[14],16 mm
same,zone of inhibition at 200 µg/mL,[15],16 mm
same,zone of inhibition at 1000 µg/mL,[16],16 mm
same,zone of inhibition at 1000 µg/mL,[17],21 mm
same,zone of inhibition at 500 µg/mL,[18],19 mm
same,MIC,[19],50 µg/mL
same,zone of inhibition at 1000 µg/mL,[20],21 mm
same,zone of inhibition at 1000 µg/mL,[21],21 mm
same,zone of inhibition at 1000 µg/mL,[22],18 mm
same,zone of inhibition at 500 µg/mL,[23],20 mm
same,MIC,[24],300 µg/mL
same,zone of inhibition at 1500 µg/mL,[25],22 mm
same,zone of inhibition at 200 µg/mL,[26],18 mm
same,zone of inhibition at 100 µg/mL,[27],12 mm
